Data: patent US20040029843A1, “Rapidly disintegrating formulations for treating or preventing mucositis” (OraPharma, Inc., priority 2002, published 2004)
Counter-ions that a name gives are not always drawn.

Test system: mucositis induced by acute radiation exposure of the cheek pouch
Test: Hamster cheek pouch model of radiation-induced oral mucositis, clinical scoring 0-5
Assay type: in vivo, Hamsters
Conditions: 0.1 ml of 0.1 mg/ml aqueous solution topically three times a day for 22 days; for reduction in the number of animal days with scores of 3 or more relative to the control group: 35 Gy on day 0; for mucositis scores versus placebo control group: 35 Gy on day 0, visual score 0-5
Method: Hamsters were randomly assigned to treatment groups with eight (8) animals per group. Each group was treated either with a drug solution or a control, water.
Animals were dosed three times a day for 22 days. The first dose was applied on day -1. Either a solution of the drug or water alone was applied in a volume of 0.1 ml three times per day.
Mucositis was induced by acute radiation exposure of the check pouch. A single dose of radiation (35 Gy/dose) was administered to all animals on Day 0. Prior to irradiation, animals were anesthetized with an intraperiotoneal injection of sodium pentobarbital (80 mg/kg) and the left buccal pouch was everted, fixed and isolated using a lead shield.
Beginning on day 6 and continuing every other day up to day 28, the cheek pouch was photographed. On days that photographs were taken, prior to the first dosing of the day, the animals were anesthetized using an inhalation anesthetic and the left cheek pouch of each animal was rinsed vigorously with sterile water to remove residual food debris or foreign contamination and blotted dry with a gauze sponge. The appearance of the cheek pouch was scored visually by comparison to a validated photographic scale, ranging from 0 for normal to 5 for severe ulceration (clinical scoring). In descriptive terms, this scale is defined as follows: […]
0 Pouch completely healthy. No erythema or vasodilatation
1 Light to […] erythema and vasodilatation. No erosion of mucosa
2 Severe erythema and vasodilatation. Erosion of superficial aspects of mucosa leaving denuded areas. Decreased stippling of mucosa
3 Formation of off-white ulcers in one or more places. Ulcers may have a yellow/gray color due to pseudomembrane formation. Cumulative size of ulcers up to ¼ of the pouch surface. Severe erythema and vasodilatation
4 Cumulative size of ulcers ¼ to ½ of the pouch surface. Loss of pliability. Severe erythema and vasodilatation
5 Virtually all of pouch is ulcerated. Loss of pliability (pouch can only partially be extracted from mouth).
A score of 1-2 represents mild stage of the disease, whereas a score of 3-5 indicates moderate to severe mucositis.

Row | Compound | reduction in the number of animal days with scores of 3 or more relative to the control group | mucositis scores versus placebo control group
1 | CN(C)[C@@H]1C(O)=C(C(N)=O)C(=O)[C@@]2(O)C(O)=C3C(=O)c4c(O)cccc4[C@@](C)(O)[C@H]3C[C@@H]12 [tetracycline hydrochloride] | more than 75% | Significantly lower scores
2 | meclocycline sulfosalicylate | more than 75% | Significantly lower scores
